Nine compounds from patent US8563542B2 (Cyclacel Limited, priority 2007, dated 2013) can be followed below.

One data set has as its target PLK1 (Homo sapiens, UniProt P53350). As to the kind of experiment: PLK1 protein kinase assay (CDC25C phosphorylation, [γ-32P]-ATP). In kind it is biochemical. To be noted: read-out: PLK1 IC50.
In a further data set the target is PLK2 (Homo sapiens, UniProt Q9NYY3). As to the kind of experiment: PLK2 inhibition (PLK selectivity). The data set is classed as biochemical. To be noted: relative selectivity.
The next data set concerns the target PLK3 (Homo sapiens, UniProt Q9H4B4). The data set can be described thus: PLK3 inhibition (PLK selectivity). The conditions noted are these: relative selectivity. The data set is classed as biochemical.
For data set [1], the system named is A2780 and A2780/ADR cells. The data set can be described thus: Cell viability assay (Alamar Blue, 72 h), parental/MDR pair, asymmetry ratio. The conditions noted are these: paired parental and MDR tumour cell lines; Example 9, FIG. 3. In kind it is cell-based, human. The text has this:
In vitro cell viability assays have been used to measure the effect of drug accumulation in paired parental and drug resistant tumour cell lines. The pairs used are the human ovarian carcinoma A2780 line with its MDR counterpart A2780/ADR and the human uterine sarcoma MES-SA line with its MDR counterpart MES-SA/Dx5 [Wesolowska O., et al. (2005) Anticancer Res., 25, 383-389].
Method: Cultivated human tumour cells of the ovarian cell line A2780 and its doxorubicin-resistant pair, A2780/ADR and the uterine cell line MES-SA and its doxorubicin-resistant pair, MES-SA/DX5 were seeded at 3000 cells per well in Nunc 96-well tissue culture plates, 100 μl per well in DMEM media containing 10% foetal calf serum and penicillin/streptomycin. […] The plates were then read at 544/595 nm.
The amount of Alamar Blue reagent reacted represents the metabolic activity of the cells. […] The values were calculated from the average of three individual measurements with blank correction (medium-only control).
The assay was performed on the Biomek FxP, automation platform from Beckman Coulter. The plates were read on the Paradigm plate reader supplied by Beckman Coulter. Asymmetry ratios were calculated as the IC50 value of the compound in the drug resistant cells divided by the IC50 value in the parental cells. […]
On the technique in general: Alamar Blue is a resazurin reagent that responds to reducing activity.

A short description of data set [2]: Pharmacokinetics in fasted conscious CD-1 mice (iv and oral). In kind it is in vivo. The conditions noted are these: 1 mg/kg iv, 5-10 mg/kg oral. As to the method:
Preliminary investigations of the pharmacokinetics of selected compounds were carried out in fasted conscious CD-1 mice (25-30 g). Compounds were dosed as 1 mg/kg by intravenous administration or 5-10 mg/kg by oral route. Twenty one male mice per administration route (n=3 mice per time point) received dose solution by single bolus injection in the tail vein or by oral gavage. Blood samples were collected by cardiac puncture at 5, 15, 30, 60, 120, 240 and 360 min following iv administration and at 30, 60, 120, 240, 360, 480 and 1440 min following oral administration. Blood samples were collected into tubes containing the anti-coagulant lithium heparin, mixed and placed promptly on crushed ice. Plasma was derived from whole blood by centrifugation, frozen and stored at −80° C. prior to analysis. Plasma concentrations were determined by liquid chromatography-tandem mass spectrometry in electrospray positive mode (ESI LC/MS/MS) using calibration curves prepared in the appropriate matrix. The lower level of quantification (LLOQ) in all cases was ca. 5 ng/mL. Plasma concentration-time data was processed using the computer program WinNonLin version 5.2 from which areas under the plasma concentration-time curve (AUCall) were calculated by non-compartmental analysis using Model 201 (IV-bolus Input) or Model 200 (Extravascular Input).
FIG. 1 plots the area under the curve (AUC) for plasma concentration vs time for each compound tested. The dosing vehicle across these experiments remained constant (intravenous=citrate buffer pH 3, 1 mL/kg; oral=DMA/PEG400/10 […] Tartrate buffer, pH 4 (1:3:6), 5 ml/kg). FIG. 2 represents the same data in the form of oral bioavailability (% F) for each compound.

A further data set addresses T1, AA (Homo sapiens, UniProt O14965).
T1 sequence (O14965 1-403): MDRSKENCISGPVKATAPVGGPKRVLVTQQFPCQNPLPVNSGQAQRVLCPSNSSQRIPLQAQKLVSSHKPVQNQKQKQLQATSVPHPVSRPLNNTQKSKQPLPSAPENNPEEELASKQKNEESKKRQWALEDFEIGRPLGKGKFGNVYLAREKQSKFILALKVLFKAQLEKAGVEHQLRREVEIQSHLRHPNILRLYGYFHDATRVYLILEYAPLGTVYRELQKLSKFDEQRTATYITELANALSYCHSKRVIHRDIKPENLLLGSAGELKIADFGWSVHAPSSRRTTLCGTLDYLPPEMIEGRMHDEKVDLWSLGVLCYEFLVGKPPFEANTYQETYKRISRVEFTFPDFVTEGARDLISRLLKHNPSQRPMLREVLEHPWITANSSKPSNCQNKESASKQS
The data set can be described thus: AA IC50 (Table 1; no method given). The data set is classed as biochemical. To be noted: Table 2, AurA IC50; class symbols; read-out: AurA IC50.

The mark [3] stands for this setting: Table 2, PLK1 IC50, class symbols.

The structures appear in SMILES notation. Where two headings read alike, the source gives them in different places.

Chain of PLK3 (Q9H4B4 whole entry): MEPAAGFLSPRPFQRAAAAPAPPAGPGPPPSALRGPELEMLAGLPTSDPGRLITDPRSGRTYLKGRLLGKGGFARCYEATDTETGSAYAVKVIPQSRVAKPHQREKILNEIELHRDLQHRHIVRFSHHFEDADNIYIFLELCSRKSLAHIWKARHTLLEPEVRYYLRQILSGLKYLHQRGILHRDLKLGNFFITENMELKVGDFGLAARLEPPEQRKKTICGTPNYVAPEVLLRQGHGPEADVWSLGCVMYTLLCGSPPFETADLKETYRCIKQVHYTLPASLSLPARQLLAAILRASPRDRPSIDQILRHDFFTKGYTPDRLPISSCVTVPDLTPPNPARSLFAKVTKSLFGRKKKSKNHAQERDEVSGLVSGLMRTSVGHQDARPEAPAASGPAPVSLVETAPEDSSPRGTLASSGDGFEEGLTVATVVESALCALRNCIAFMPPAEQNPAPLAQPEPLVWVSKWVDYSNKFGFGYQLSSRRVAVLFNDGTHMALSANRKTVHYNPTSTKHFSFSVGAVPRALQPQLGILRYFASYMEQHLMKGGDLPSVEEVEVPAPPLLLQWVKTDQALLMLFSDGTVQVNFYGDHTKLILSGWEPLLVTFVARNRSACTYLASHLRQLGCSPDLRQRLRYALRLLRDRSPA
Chain of PLK2 (Q9NYY3 whole entry): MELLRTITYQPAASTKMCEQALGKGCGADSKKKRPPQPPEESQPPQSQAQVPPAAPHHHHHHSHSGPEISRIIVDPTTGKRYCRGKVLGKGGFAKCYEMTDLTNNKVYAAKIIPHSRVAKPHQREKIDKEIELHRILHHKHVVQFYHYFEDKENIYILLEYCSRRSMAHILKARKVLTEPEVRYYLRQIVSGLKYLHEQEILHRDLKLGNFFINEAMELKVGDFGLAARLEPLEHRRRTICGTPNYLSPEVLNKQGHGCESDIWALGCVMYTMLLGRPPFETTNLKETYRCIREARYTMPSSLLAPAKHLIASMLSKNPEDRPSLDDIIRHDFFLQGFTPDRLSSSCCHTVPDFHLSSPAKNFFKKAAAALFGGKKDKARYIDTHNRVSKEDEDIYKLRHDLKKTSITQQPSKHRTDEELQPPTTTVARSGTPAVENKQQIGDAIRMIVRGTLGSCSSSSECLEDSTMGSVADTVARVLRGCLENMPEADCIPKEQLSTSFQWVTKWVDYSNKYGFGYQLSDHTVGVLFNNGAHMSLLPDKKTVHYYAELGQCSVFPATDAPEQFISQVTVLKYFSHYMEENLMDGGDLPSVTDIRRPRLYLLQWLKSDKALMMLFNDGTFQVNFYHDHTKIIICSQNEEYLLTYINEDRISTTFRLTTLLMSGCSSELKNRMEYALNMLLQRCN
Chain of PLK1 (P53350 whole entry): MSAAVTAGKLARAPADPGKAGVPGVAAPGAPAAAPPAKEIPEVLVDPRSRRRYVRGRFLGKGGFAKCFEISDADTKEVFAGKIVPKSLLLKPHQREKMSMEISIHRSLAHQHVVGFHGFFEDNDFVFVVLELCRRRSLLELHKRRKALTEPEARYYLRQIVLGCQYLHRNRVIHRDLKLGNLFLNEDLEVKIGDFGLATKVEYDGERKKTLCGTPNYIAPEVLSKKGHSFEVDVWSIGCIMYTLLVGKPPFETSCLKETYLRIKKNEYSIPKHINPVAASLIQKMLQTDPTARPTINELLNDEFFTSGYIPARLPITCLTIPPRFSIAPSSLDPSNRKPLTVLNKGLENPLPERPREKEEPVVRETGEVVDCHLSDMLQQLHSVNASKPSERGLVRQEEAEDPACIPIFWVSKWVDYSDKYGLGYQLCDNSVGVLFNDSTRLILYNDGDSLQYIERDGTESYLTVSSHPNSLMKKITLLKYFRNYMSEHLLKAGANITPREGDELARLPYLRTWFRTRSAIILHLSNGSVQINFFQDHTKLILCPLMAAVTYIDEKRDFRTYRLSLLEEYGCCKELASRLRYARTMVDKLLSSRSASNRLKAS

By IC50 is commonly meant the concentration needed to halve the response being measured. Regarding `COc1cc(C(=O)NC2CN3CCC2CC3)ccc1Nc1ncc2c(n1)N(C1CCCC1)CC1(CCC1)C(=O)N2C` (racemic) [Compound 218, (±)-4-(9′-cyclopentyl-5′-methyl-6′-oxo-5′,6′,8′,9′-tetrahydrospiro[cyclobutane-1,7′-pyrimido[4,5-b][1,4]diazepine]-2′-ylamino)-3-methoxy-N-(quinuclidin-3-yl)benzamide], at PLK1 (setting [3]), the IC50 is below 0.1 µM. For the same compound, the IC50 on PLK1 (Table 3) was below 0.1 µM. The IC50 on PLK1 (Table 4) is below 0.1 µM. On PLK2, the “Selectivity for PLK1 versus PLK2 compared to compound [I-4] of WO 07/095188” value is given as 7 fold, the “Selectivity for PLK1 versus PLK2 compared to compound [I-64] of WO 07/095188” value is listed as “twice” and the “Selectivity for PLK1 versus PLK2 compared to compound [I-76] of WO 07/095188” value is listed as around 6 fold. Also, at PLK3, the “Selectivity for PLK1 versus PLK3 compared to compound [I-4] of WO 07/095188” value was 5 fold, the “Selectivity for PLK1 versus PLK3 compared to compound [I-64] of WO 07/095188” value is reported as 5 fold and the “Selectivity for PLK1 versus PLK3 compared to compound [I-76] of WO 07/095188” value is reported as around 12 fold.
Consider `COc1cc(C(=O)N[C@H]2CC[C@H](N3CCN(CC4CC4)CC3)CC2)ccc1Nc1ncc2c(n1)N(C1CCCC1)CC(C)(C)C(=O)N2C` [Compound 372, 4-(9-cyclopentyl-5,7,7-trimethyl-6-oxo-6,7,8,9-tetrahydro-5H-pyrimido[4,5-b][1,4]diazepin-2-ylamino)-N-((trans)-4-(4-(cyclopropylmethyl)piperazin-1-yl)cyclohexyl)-3-methoxybenzamide], for which the half-inhibitory concentration (IC50) at PLK1 (Table 3) is below 0.1 µM. The “Cellular efflux (MDR/parental cell asymmetry in cell viability assays)” value in data set [1] is on record as “low cellular efflux”.
Regarding `COc1cc(C(=O)N[C@H]2CC[C@H](N3CCN(CC4CC4)CC3)CC2)ccc1Nc1ncc2c(n1)N(C1CCCC1)CC1(CC1)C(=O)N2C` [H], in data set [2], the “Oral bioavailability (% F) compared to compounds A-G” value is reported as “markedly superior” and the “Systemic exposure (plasma AUC) compared to compounds A-G” value is “markedly superior”.
For `COc1cc(C(=O)N[C@H]2CC[C@H](N3CCN(CC4CC4)CC3)CC2)ccc1Nc1ncc2c(n1)N(C1CCCC1)CCC(=O)N2C` [I], in data set [2], the “Oral bioavailability (% F) compared to compounds A-G” value is reported as “markedly superior” and the “Systemic exposure (plasma AUC) compared to compounds A-G” value was “markedly superior”.
For `CN1C(=O)CCN(C2CCCC2)c2nc(Nc3ccc4c(c3)OCC(=O)N4)ncc21` [compound 298, 9-Cyclopentyl-5-methyl-2-(3-oxo-3,4-dihydro-2H-benzo[1,4]oxazin-7-ylamino)-5,7,8,9-tetrahydro-pyrimido[4,5-b][1,4]diazepin-6-one], the IC50 on PLK1 (setting [3]) and on AA was below 1 µM each time.
As to `CN1C(=O)CCN(C2CCCC2)c2nc(Nc3ccc4c(c3)NC(=O)CO4)ncc21` [compound 299, 9-Cyclopentyl-5-methyl-2-(3-oxo-3,4-dihydro-2H-benzo[1,4]oxazin-6-ylarnino)-5,7,8,9-tetrahydro-pyrimido[4,5-b][1,4]diazepin-6-one], the IC50 at PLK1 (setting [3]) is below 10 µM; on AA it was below 0.1 µM.
The matching figures for `CN1C(=O)CCN(C2CCCC2)c2nc(Nc3ccc(S(=O)(=O)N(C)C)cc3)ncc21` [compound 300, 4-(9-Cyclopentyl-5-methyl-6-oxo-6,7,8,9-tetrahydro-5H-pyrimido[4,5-b][1,4]diazepin-2-ylamino)-N,N-dimethyl-benzenesulfonamide]: below 10 µM and below 0.1 µM.
The matching figures for `CC(=O)Nc1ccc(Nc2ncc3c(n2)N(C2CCCC2)CCC(=O)N3C)cc1Cl` [compound 324, N-[2-Chloro-4-(9-cyclopentyl-5-methyl-6-oxo-6,7,8,9-tetrahydro-5H-pyrimido[4,5-b][1,4]diazepin-2-ylamino)-phenyl]-acetamide]: below 10 µM and below 1 µM.
The matching figures for `CN1CCC(NC(=O)c2ccc(Nc3ncc4c(n3)N(C3CCCC3)CC3(CC3)C(=O)N4C)cc2)CC1` [compound 349, 4-(9-Cyclopentyl-5-methyl-6-oxo-6,7,8,9-tetrahydro-5H-spiro[pyrimido[4,5-b][1,4]diazepin-3,1'-cyclopropane]-2-ylamino)-N-(1-methyl-piperidin-4-yl)-benzamide]: below 1 µM and below 10 µM.
